Converted amounts (≈) assume the structure as drawn. Like-named read-outs stand apart in the source and are kept apart here.
Columns and labels:
P. aeruginosa PBP3 = biological target: T1, P. aeruginosa PBP3 (Pseudomonas aeruginosa, UniProt G3XD46); test: Bocillin-FL fluorescence polarization competition binding assay, P. aeruginosa PBP3; settings: fluorescence polarization competition binding assay using Bocillin-FL
T1 construct: made in house
From the text: Example I: Experimental Method for Penicillin-Binding Protein Binding Assays with Bocillin-FL Via Fluorescence Polarization
To determine the ability of boronic acid-based test PBP inhibitors to bind Penicillin Binding Proteins (PBPs), Bocillin-FL (fluorescently-labeled penicillin V; ThermoFisher Scientific) was used in a fluorescence polarization (FP) competition binding assay to assess inhibitor binding to PBP2, PBP3 or PBP4 from Escherichia coli (K12), PBP3 from Pseudomonas aeruginosa (PA01), PBP1a, PBP2 and PBP3 from Acinetobacter baumannii (ATCC 19606), and PBP2 from Neiserria gonorrheae (FA19). PBPs were cloned and purified as described previously (E. coli PBPs, King, D. T, et al., ACS Infectious Diseases 2015, 1, 175-184; P. aeruginosa PBP3, Han et. al., PNAS 2010, 107 (51), 22002-22007; A. baumannii PBPs, Penwell et. al., Antimicrob. Agents Chemother. 2015, 59 (3), 1680-1689; N. gonorrhoeae PBP2, Singh et. al., J Biol. Chem. 2019, 294 (38), 14020-14032). To establish assay conditions for competition binding, enzyme titration/saturation binding experiments were initially performed. Bocillin-FL was prepared at 0.2 μM in a buffer comprised of 50 mM Hepes (pH 8.0), 300 mM NaCl and 5% (v/v) glycerol for reactions with E. coli, P. aeruginosa and N. gonorrhoeae PBPs, and 25 mM Tris (pH 8.0), 200 mM NaCl and 10% (v/v) glycerol and 0.005% (v/v) Tween 20 for reactions with A. baumannii PBPs. Saturation binding was performed by mixing 40 μl of PBP solutions ranging in concentrations from 0-24 μM with 40 μl of the 0.2 μM Bocillin-FL solution, in individual wells of a black 384-well microplate. FP was measured immediately upon mixing (Excitation, 490 nm; Emission, 520 nm; g-factor, 0.96), using a Cytation3 (BioTek) microplate reader and measured continuously for up to 120 minutes. […] The competition binding assay (80 μl final volume) was validated using beta-lactams and PBPs at final concentrations of: 1.5 μM, E. coli PBP3; 0.75 μM, P. aeruginosa PBP3; 1 μM A. baumannii PBP1a; 2.5 μM A. baumannii PBP2; 0.2 μM A. baumannii PBP3; and […] N. gonorrhoeae PBP2. Bocillin-FL was at 0.1 μM (0.05 μM with A. baumannii PBP1a) and beta-lactam concentrations ranged from 0-1000 μM. […] Bocillin-FL was added and the FP immediately measured for up to 60 minutes (90 minutes for E. coli PBP2). […] The beta-lactam potency was reported as the concentration of beta-lactam required to reduce the amount of PBP bound-Bocillin-FL by 50% (EC50). […] Binding assays for boronic acid PBP inhibitors were performed in an identical fashion for the respective PBPs

[1] = tested on: K. pneumoniae UMM producing SHV-5 and KPC-2; test: Broth microdilution MIC in CAMHB; type: cell-based; settings: Klebsiella pneumoniae, read-out: Minimum Inhibitory Concentration, K. pneumoniae UMM
Description: (§1) Example III: In Vitro Antibacterial Assays
(§2) To determine the ability of test compounds to inhibit the growth of bacterial strains, classic cell based broth microdilution minimum inhibitory concentration (MIC) assays were employed. MIC assays are performed according to CLSI methods except where otherwise noted (CLSI, 2018 and CLSI, 2019). The reference type strain E. coli ATCC 25922; the wild-type parent strain E. coli AG100; the hyper-permeable E. coli 901C and E. coli D22; and the E. coli AG100A strain lacking the acrAB efflux pump encoding genes were used to determine the ability of the PBP inhibitors to penetrate the outer membrane of gram-negative bacteria and inhibit bacterial growth. […] The P. aeruginosa ATCC 27853 and A. baumannii ATCC 19606, along with the hyper-permeable P. aeruginosa ATCC 35151 and an engineered efflux pump-compromised strain of P. aeruginosa (ΔmexAB-oprM) were used to determine the ability of PBP inhibitors to penetrate the outer membrane of P. aeruginosa and A. baumannii and assess antibacterial activity against these important gram-negative organisms.
(§3) Briefly, cryo-preserved bacterial cultures of challenge strains are streaked for isolation on appropriate agar medium, in this case cation-adjusted Mueller Hinton agar. Following incubation to allow growth of the colonies, plates are sealed with parafilm and stored refrigerated for up to two weeks. For preparation of assay inoculum and to ensure low variability, at least 5 colonies are picked from the agar plates with an inoculating loop and aseptically transferred to a culture tube containing 3 mL of cation-adjusted Mueller Hinton broth (CAMHB). The broth culture is grown for 3-5 hours at 37° C. with shaking at 200 rpm. Meanwhile, 2-fold serial dilutions of test compounds are conducted in a 96-well plate with a final volume of 75 μL per well at 2-fold the final desired concentration. After the dilution plates are set up the growing cultures are then diluted in a cuvette containing CAMHB and the optical density is measured at 600 nm. The inoculum is diluted such that 75 μL of this culture in CAMHB results in a starting bacterial concentration of 2-8×10^5 CFU/mL when added to the dilution plates. The plates are incubated for 16-20 hours for Enterobacteriaceae and Pseudomonas and 20-24 hours for Acinetobacter at 37° C. The MIC values are read visually as the lowest concentration well with no bacterial growth.

[2] = tested on: K. pneumoniae SI-117 producing VIM-1; test: Broth microdilution MIC in CAMHB; type: cell-based; settings: Klebsiella pneumoniae, read-out: Minimum Inhibitory Concentration, K. pneumoniae SI-117
Description: as §1, §2, §3

E. coli D22 = test: Broth microdilution MIC in CAMHB; type: cell-based; settings: Escherichia coli, MHB, read-out: Minimum Inhibitory Concentration, E. coli D22
Description: as §1, §2, §3

E. coli AG100 = test: Broth microdilution MIC in CAMHB; type: cell-based; settings: Escherichia coli, MHB, read-out: Minimum Inhibitory Concentration, E. coli AG100
Description: as §1, §2, §3

E. coli AG100A = test: Broth microdilution MIC in CAMHB; type: cell-based; settings: Escherichia coli, read-out: Minimum Inhibitory Concentration, E. coli AG100A
Description: as §1, §2, §3

P. aeruginosa ATCC 35151 = test: Broth microdilution MIC in CAMHB; type: cell-based; settings: Pseudomonas aeruginosa, ATCC35151; MHB; hyper-permeable strain; read-out: Minimum Inhibitory Concentration, P. aeruginosa ATCC 35151
Description: as §1, §2, §3

E. coli ATCC 25922 = test: Broth microdilution MIC in CAMHB; type: cell-based
Description: as §1, §2, §3

P. aeruginosa ATCC 27853 = test: Broth microdilution MIC in CAMHB; type: cell-based; settings: Pseudomonas aeruginosa, ATCC27853; MHB; read-out: Minimum Inhibitory Concentration, P. aeruginosa ATCC 27853
Description: as §1, §2, §3

[3] = tested on: K. pneumoniae 848844 producing SHV-11 and KPC-2; test: Broth microdilution MIC in CAMHB; type: cell-based; settings: Klebsiella pneumoniae, read-out: Minimum Inhibitory Concentration, K. pneumoniae 848844
Description: as §1, §2, §3

[4] = tested on: P. aeruginosa (ΔmexAB-oprM); test: Broth microdilution MIC in CAMHB; type: cell-based; settings: Pseudomonas aeruginosa, read-out: Minimum Inhibitory Concentration, P. aeruginosa ΔmexAB-OprM
Description: as §1, §2, §3

E. coli 901C = test: Broth microdilution MIC in CAMHB; type: cell-based; settings: Escherichia coli, MHB, read-out: Minimum Inhibitory Concentration, E. coli 901C
Description: as §1, §2, §3

A. baumannii ATCC 19606 = test: Broth microdilution MIC in CAMHB; type: cell-based; settings: Acinetobacter baumannii, ATCC19606; MHB; read-out: Minimum Inhibitory Concentration, A. baumannii ATCC 19606
Description: as §1, §2, §3

[5] = wild-type parent strain E. coli AG100
[6] = Escherichia coli, ATCC25922; MHB; E. coli ATCC 25922; read-out: Minimum Inhibitory Concentration, E. coli 25922

T1 sequence (G3XD46 whole entry): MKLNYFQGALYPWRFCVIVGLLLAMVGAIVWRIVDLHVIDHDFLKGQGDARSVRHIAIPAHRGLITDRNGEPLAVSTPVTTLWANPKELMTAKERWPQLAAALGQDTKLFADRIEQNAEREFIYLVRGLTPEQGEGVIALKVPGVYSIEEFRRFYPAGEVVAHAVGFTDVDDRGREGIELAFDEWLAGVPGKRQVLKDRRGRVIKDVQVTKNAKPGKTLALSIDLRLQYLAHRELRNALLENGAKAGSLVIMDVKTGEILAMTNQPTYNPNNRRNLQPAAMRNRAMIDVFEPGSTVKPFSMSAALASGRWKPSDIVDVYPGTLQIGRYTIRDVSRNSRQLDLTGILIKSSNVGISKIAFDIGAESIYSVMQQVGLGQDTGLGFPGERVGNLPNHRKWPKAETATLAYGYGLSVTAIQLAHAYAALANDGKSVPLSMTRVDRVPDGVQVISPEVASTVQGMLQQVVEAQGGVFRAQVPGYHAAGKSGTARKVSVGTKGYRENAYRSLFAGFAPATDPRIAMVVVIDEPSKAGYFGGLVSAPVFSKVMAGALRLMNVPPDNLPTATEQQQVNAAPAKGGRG

SMILES | P. aeruginosa PBP3 Potency (P. aeruginosa PBP3) | MIC [1] [µg/mL] | MIC [2] [µg/mL] | MIC (E. coli D22; E. coli D22 (hyper-permeable)) [µg/mL] | MIC (E. coli AG100; E. coli AG100 (wild-type parent)) [µg/mL] | MIC (E. coli AG100A) [µg/mL] | MIC (P. aeruginosa ATCC 35151) [µg/mL] | MIC (E. coli ATCC 25922; Escherichia coli, ATCC25922; E. coli ATCC 25922; MHB; read-out: Minimum Inhibitory Concentration, E. coli 25922) [µg/mL] | MIC (P. aeruginosa ATCC 27853) [µg/mL] | MIC [3] [µg/mL] | MIC [4] [µg/mL] | MIC (E. coli 901C; E. coli 901C (hyper-permeable)) [µg/mL] | MIC (A. baumannii ATCC 19606) [µg/mL] | MIC (E. coli D22; hyper-permeable E. coli D22) [µg/mL] | MIC (E. coli AG100; [5]) [µg/mL] | MIC (E. coli ATCC 25922; [6]) [µg/mL] | MIC (E. coli 901C; hyper-permeable E. coli 901C) [µg/mL]
CCN1CCN(C(=O)N[C@H](C(=O)N[C@H]2Cc3cccc(C(=O)O)c3OB2O)c2ccc(C(=O)O)c(Cl)c2F)C(=O)C1=O (single isomer, unassigned) [Example 221] | C (C represents a potency between 10 and 30 μM) | 0.5 to 1 (≈ 0.827 to 1.65 µM) | 8 to 16 (≈ 13.2 to 26.5 µM) | > 128 | > 128 | > 128 | 2 to 4 (≈ 3.31 to 6.61 µM) | 32 to 64 (≈ 52.9 to 106 µM) | > 128 | > 128 | 32 to 64 (≈ 52.9 to 106 µM) | > 128 | > 128 |  |  |  | 
CCN1CCN(C(=O)N[C@@H](C(=O)N[C@H]2Cc3cccc(C(=O)O)c3OB2O)c2ccc(C(=O)O)c(Cl)c2F)C(=O)C1=O (single isomer, unassigned) [Example 222] | D (D represents a potency <10 μM) | < 0.25 | 2 to 4 (≈ 3.31 to 6.61 µM) |  |  | > 128 | 0.5 to 1 (≈ 0.827 to 1.65 µM) |  | > 128 | > 128 | 32 to 64 (≈ 52.9 to 106 µM) |  | > 128 | > 128 | > 128 | 32 to 64 (≈ 52.9 to 106 µM) | > 128
NCCN1CCN(C(=O)N[C@@H](C(=O)N[C@H]2Cc3cccc(C(=O)O)c3OB2O)c2c(F)cccc2F)C(=O)C1=O (single isomer, unassigned) [Example 223] | D (D represents a potency <10 μM) | 2 to 4 (≈ 3.58 to 7.15 µM) | 8 to 16 (≈ 14.3 to 28.6 µM) |  |  | > 128 | 2 to 4 (≈ 3.58 to 7.15 µM) |  | > 128 | > 128 | 32 to 64 (≈ 57.2 to 114 µM) |  | > 128 | > 128 | > 128 | > 128 | > 128
NCCN1CCN(C(=O)N[C@@H](C(=O)N[C@H]2Cc3cccc(C(=O)O)c3OB2O)c2c(Cl)cccc2Cl)C(=O)C1=O (single isomer, unassigned) [Example 224] | B (B represents a potency between 30 μM and 500 μM inclusive) | 8 to 16 (≈ 13.5 to 27 µM) | > 128 |  |  | > 128 | 32 to 64 (≈ 54 to 108 µM) |  | > 128 | > 128 | > 128 |  | > 128 | > 128 | > 128 | > 128 | > 128
NCCCN1CCN(C(=O)N[C@@H](C(=O)N[C@H]2Cc3cccc(C(=O)O)c3OB2O)c2ccc(O)c(F)c2F)C(=O)C1=O (single isomer, unassigned) [Example 238] | D (D represents a potency <10 μM) | < 0.25 | 0.5 to 1 (≈ 0.848 to 1.7 µM) |  |  | 32 to 64 (≈ 54.3 to 109 µM) | < 0.25 |  | 32 to 64 (≈ 54.3 to 109 µM) | 8 to 16 (≈ 13.6 to 27.2 µM) | 2 to 4 (≈ 3.39 to 6.79 µM) |  | > 128 | 8 to 16 (≈ 13.6 to 27.2 µM) | 32 to 64 (≈ 54.3 to 109 µM) | 2 to 4 (≈ 3.39 to 6.79 µM) | 32 to 64 (≈ 54.3 to 109 µM)
NCCCN1CCN(C(=O)N[C@H](C(=O)N[C@H]2Cc3cccc(C(=O)O)c3OB2O)c2ccc(O)c(F)c2F)C(=O)C1=O (single isomer, unassigned) [Example 239] | C (C represents a potency between 10 and 30 μM) | 2 to 4 (≈ 3.39 to 6.79 µM) | 8 to 16 (≈ 13.6 to 27.2 µM) |  |  | > 128 | 2 to 4 (≈ 3.39 to 6.79 µM) |  | > 128 | > 128 | 8 to 16 (≈ 13.6 to 27.2 µM) |  | > 128 | > 128 | > 128 | > 128 | > 128
CCN1C[C@H](C)N(C(=O)N[C@@H](C(=O)N[C@H]2Cc3cccc(C(=O)O)c3OB2O)c2ccc(O)c(F)c2F)C(=O)C1=O [Example 240, (3R)-3-(2-(2,3-difluoro-4-hydroxyphenyl)-2-((S)-4-ethyl-6-methyl-2,3-dioxopiperazine-1-carboxamido)acetamido)-2-hydroxy-3,4-dihydro-2H-benzo[e][1,2]oxaborinine-8-carboxylic acid] | D (D represents a potency <10 μM) | < 0.25 | 2 to 4 (≈ 3.48 to 6.96 µM) |  |  | 32 to 64 (≈ 55.7 to 111 µM) | 2 to 4 (≈ 3.48 to 6.96 µM) |  | > 128 | 32 to 64 (≈ 55.7 to 111 µM) | 8 to 16 (≈ 13.9 to 27.9 µM) |  | > 128 | 32 to 64 (≈ 55.7 to 111 µM) | > 128 | 32 to 64 (≈ 55.7 to 111 µM) | > 128

— patent publication US20230114728A1 (Venatorx Pharmaceuticals, Inc., priority 2019, published 2023)
